Reference: US4737518A, “Lipid derivatives, their production and use” (Takeda Chemical Industries, Ltd., priority 1984, dated 1988)
Where a name gives a salt, the structure may show the parent alone.

Tests used:
PAF-induced death = experiment: Prevention activity against PAF-induced death in mice; type: in vivo, mouse (male Jc1-ICR); settings: for (Mice survived)/(mice employed): PAF 50 μg/kg i.v., control 3/16
Protocol: Prevention activity against PAF-induced death in mice
The test drug was investigated for the preventive activity against shock death to be brought about within 30 min. after 50 μg/kg of PAF in the form of 0.1 ml/kg physiological saline solution was given intravenously to a male Jc1-ICR mouse. The test drug was administered intravenously 5 min. before the injection of PAF.
In accordance with the same procedure as described in Experiment Example 2, the test compounds were investigated for the preventive activity against PAF-induced death in mice.

PAF-induced hypotension = experiment: Restoring activity against PAF-induced hypotension; type: in vivo, rat (male S.D.); settings: 3 min after PAF 1 μg/kg i.v., 1 min after test drug
Protocol: Restoring activity against PAF-induced hypotension
Male S.D. rats, aged 16 weeks, were employed.
Under anesthesia with pentobarbital, cannulas were inserted into the femoral artery and vein of rats for measurement of blood pressure and for administration of a drug, respectively. Three (3) minutes after intravenous administration of 1 μg/kg (0.25% BAS physiological saline solution; volume of 0.2 ml/kg) of PAF, a test drug (physiological saline solution; volume of 0.5 ml/kg) was administered intravenously, and blood pressure was measured for subsequent 1 hour.
The ratio of hypertension by the test drug to hypotension by PAF was taken as a restoration rate.
Restoration rate (%)=[(Blood pressure just before i.v. administration of a test drug)-(Blood pressure 1 min. after i.v. administration of a test drug)/(Blood pressure just before i.v. administration of PAF)-(Blood pressure just before i.v. administration of a test drug)]×100

[1] = system: rabbit platelet aggregation by PAF; experiment: Inhibitory activity on rabbit platelet aggregation by PAF; type: cell-based; settings: Oryctolagus cuniculus, PAF 1×10^-8 M, read-out: rate of inhibition of rabbit platelet aggregation by PAF; for inhibition at 1 µM: test drug 1 × 10^-6 M; for inhibition at 30 µM: test drug 3 × 10^-5 M; for inhibition at 3 µM: test drug 3 × 10^-6 M; for inhibition at 0.3 µM: test drug 3 × 10^-7 M
HL-60 cells = experiment: Effect on inducing differentiation of HL-60 cells (NBT-positive cells); type: cell-based, human; settings: 6 days; for Emax: Homo sapiens, HL-60, 144 h, at optimal conc., NBT-positive relative to live cells, read-out: Maximum differentiation extent: Differentiation
Protocol: Assay of the effects on inducing differentiation of HL-60 cells (human promyelocytic leukemia cells) and Neuro-2a cells (mouse neuroblastoma cells): RPMI-1640 medium (Flow Laboratories, Inc.) supplemented with 20% fetal calf serum (M.A. […] The culture was incubated at 37° C. in a 5% CO2 incubator for 6 days. […] The reaction was allowed to proceed at 37° C. for 20 minutes. The reaction was stopped by cooling with ice, and the cells were washed by means of centrifugation, followed by collecting 3-5×10^4 cells and by subjecting to centrifugation using Cytospin centrifuge to prepare a cell smear, which was fixed with methanol and stained with Kernechtrot solution. On each cell smear, the percentage of NBT-positive cells relative to live cells, […] by examination of a minimum of 200 cells, was expressed as the differentiation extent.

[2] = Table 4, 1.0 mg/kg i.v., control 24%
[3] = Table 4, 0.3 mg/kg i.v., control 24%

| SMILES | Survival rate (PAF-induced death; [2]) [%] | inhibition at 30 µM [1] [%] | inhibition at 3 µM [1] [%] | Restoration rate (PAF-induced hypotension; 0.5 mg/kg i.v.) [%] | inhibition at 0.3 µM [1] [%] | Maximum differentiation extent: Optimal conc. (HL-60 cells) [µg/mL] | Emax (HL-60 cells) [%] | also measured |
| --- | --- | --- | --- | --- | --- | --- | --- | --- |
| CCCCCCCCCCCCCCCCCCNC(=O)OCC(COC(=O)N(CC[N+](C)(C)C)C(C)=O)OC (stereo not drawn) [Example 25, 3-O-[N-Acetyl-N-(2'-trimethylammonioethyl)]carbamoyl-2-O-methyl-1-O-octadecylcarbamoylglycerol iodide] | 94 | 100 | 100 | – | – | – | – | Restoration rate (PAF-induced hypotension; 1.0 mg/kg i.v.): 69%; inhibition at 1 µM [1]: 40% |
| CCCCCCCCCCCCCCCCCCOCC(CN1CC(=O)N(CC[N+](C)(C)C)C1=O)OC(C)=O (stereo not drawn) [Example 91, 1-[1-(2-Acetoxy-3-ocatadecyloxy)propyl]-3-(2-trimethylammonioethyl)hydantoin chloride.] | 100 | 100 | 100 | 77 | 78 | – | – | – |
| CCCCCCCCCCCCCCCCCCOCC(CN1CC(=O)N(CC[n+]2ccsc2)C1=O)OC(C)=O (stereo not drawn) [Example 92, 1-[1-(2-Acetoxy-3-octadecyloxy)propyl]-3-(2-thiazolioethyl)hydantoin chloride] | 100 | 100 | 100 | 77 | – | – | – | Survival rate (PAF-induced death; [3]): 77% |
| CCCCCCCCCCCCCCCCCCNC(=O)OCC(COC(=O)N(Cc1cccc[n+]1CCCC)C(C)=O)OC (stereo not drawn) [Example 177, 3-[N-Acetyl-N-(N'-butylpyridinio-2-yl)methyl]carbamoyl-1-octadecylcarbamoyl-2-methylglycerol chloride] | – | – | – | – | – | 0.48 | 91 | – |
| CCCCCCCCCCCCCCCCCCOCC(COC(=O)N(CC[N+](C)(C)C)C(C)=O)OC(C)=O (stereo not drawn) [Example 3, 2-O-Acetyl-3-O-[N-acetyl-N-(2'-trimethylammonioethyl)]carbamoyl-1-O-octadecylglycerol iodide] | – | 100 | 100 | 48 | – | – | – | Survival rate (PAF-induced death; 0.1 mg/kg i.v. 5 min before PAF 50 μg/kg i.v., control 19%): 38%; (Mice survived)/(mice employed) (PAF-induced death; 0.1 mg/kg i.v.): 3/8; Survival rate (PAF-induced death; 1.0 mg/kg i.v. 5 min before PAF 50 μg/kg i.v., control 19%): 100%; (Mice survived)/(mice employed) (PAF-induced death; 1.0 mg/kg i.v.): 8/8; prevention of PAF-induced death (conclusion) (PAF-induced death; 0.1 and 1 mg/kg i.v.): potent drug for prevention of PAF-induced death; inhibition at 1 µM [1]: 86% |
| CCCCCCCCCCCCCCCCCCNC(=O)OCC(CNC(=O)N(Cc1cccc[n+]1C)C(C)=O)OC.[Cl-] (stereo not drawn) [Example 106, 1-Methyl-2-[N-acetyl-N'-(3-octadecylcarbamoyloxy-2-methoxypropyl)ureido]methylpyridinium chloride] | – | – | – | – | – | 1.88 | 78 | – |
| CCCCCCCCCCCCCCCCNC(=O)OCC(COC(=O)N(Cc1cccc[n+]1CC)C(C)=O)OC (stereo not drawn) [Example 169, 3-[N-Acetyl-N-(N'-ethylpyridinio-2-yl)methyl]carbamoyl-1-hexadecylcarbamoyl-2-methylglycerol chloride] | – | 100 | 100 | – | 100 | 0.32 | 59 | – |
| CCCCCCCCCCCCCCCCCCNC(=O)OCC(CN1CC(=O)N(CC[N+](C)(C)C)C1=O)OC (stereo not drawn) [Example 115, 1-[(2-Methoxy-3-octadecylcarbamoyloxy)propyl]-3-[2-(trimethylammonio)ethyl]hydantoin chloride] | – | 100 | 100 | – | 9 | 1.25 | 61 | – |
| CCCCCCCCCCCCCCCCCCNC(=O)OCC(COC(=O)N(CC1CCC[N+]1(C)CC)C(C)=O)OC (stereo not drawn) [Example 45, 3-O-[N-Acetyl-N-(1'-ethyl-1'-methylpyrrolidinio-2'-yl)methyl]carbamoyl-2-O-methyl-1-O-octadecylcarbamoylglycerol iodide] | 100 | 100 | 100 | – | 41 | 0.48 | 72 | Survival rate (PAF-induced death; [3]): 77% |
| CCCCCCCCCCCCCCCCCCNC(=O)OCC(COC(=O)N(Cc1cccc[n+]1C)C(C)=O)OC (stereo not drawn) [Example 104, 3-O-[N-Acetyl-N-(N-methylpyridnio-2-yl)methyl]carbamoyl-2-O-methyl-1-O-octadecylcarbamoylglycerol chloride] | – | 100 | 100 | – | 100 | – | – | Restoration rate (PAF-induced hypotension; 0.1 mg/kg i.v.): 94% |
| CCCCCCCCCCCCCCCCCCNC(=O)OCC(COC(=O)N(CC[N+]1(C)CCCC1)C(C)=O)OC (stereo not drawn) [Example 35, 3-O-[N-Acetyl-N-(2'-N-methylpyrrolidinioethyl)]carbamoyl-2-O-methyl-1-O-octadecylcarbamoylglycerol hydrochloride] | 80 | 100 | 100 | 73 | 45 | – | – | – |
| CCCCCCCCCCCCCCNC(=O)OCC(COC(=O)N(Cc1cccc[n+]1CC)C(C)=O)OC (stereo not drawn) [Example 170, 3-[N-Acetyl-N-(N'-ethylpyridinio-2-yl)methyl]carbamoyl-2-methyl-1-tetradecylcarbamoylglycerol chloride] | – | 100 | 100 | – | 100 | 0.32 | 77 | – |
| CCCCCCCCCCCCCCCCCCNC(=O)OCC(COC(=O)N(CC[N+]1(C)CCCC1)C(=O)OC)OC (stereo not drawn) [Example 43, 3-O-[N-Methoxycarbonyl-N-(2'-N-methylpyrrolidinioethyl)]carbamoyl-2-O-methyl-1-O-octadecylcarbamoylglycerol iodide] | 100 | 100 | 100 | 83 | – | – | – | – |
